Molecular target: T1, enzyme ACAT-1 (Homo sapiens, UniProt P35610)
T1 construct: endogenous in cells; host or cells: HepG2
T1 sequence (P35610 1-550): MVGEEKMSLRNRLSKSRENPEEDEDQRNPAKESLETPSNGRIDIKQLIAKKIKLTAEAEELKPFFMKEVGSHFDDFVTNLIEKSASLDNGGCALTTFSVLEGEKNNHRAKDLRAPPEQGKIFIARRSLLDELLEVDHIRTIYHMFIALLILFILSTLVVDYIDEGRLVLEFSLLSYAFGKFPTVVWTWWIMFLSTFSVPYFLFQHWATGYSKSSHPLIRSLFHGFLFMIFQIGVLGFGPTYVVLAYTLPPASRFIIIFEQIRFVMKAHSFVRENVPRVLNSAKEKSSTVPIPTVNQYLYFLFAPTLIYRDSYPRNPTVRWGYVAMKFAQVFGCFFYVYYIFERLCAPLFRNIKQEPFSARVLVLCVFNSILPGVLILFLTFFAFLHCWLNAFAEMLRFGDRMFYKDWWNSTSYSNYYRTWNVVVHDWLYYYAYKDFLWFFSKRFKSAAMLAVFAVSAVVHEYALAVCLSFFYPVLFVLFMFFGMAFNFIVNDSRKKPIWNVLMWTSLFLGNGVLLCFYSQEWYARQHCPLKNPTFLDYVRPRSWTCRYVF
Assay: NBD-cholesterol fluorescence test in HepG2 cells for inhibitory activity towards ACAT-1 (SOAT-1)
Assay type: cell-based
Conditions: NBD-cholesterol 1 μg/ml, incubation 6 hrs at 37° C., fluorescence excitation 490 nm, emission 540 nm
Procedure: The compounds (I) according to the invention, and the pharmaceutically acceptable salts, solvates and/or hydrates thereof, have inhibitory properties towards the enzyme SOAT-1. This inhibitory action on the enzyme SOAT-1 is measured according to a primary enzymatic test HepG2, as described below.
The compounds of formula (I) according to the invention were subjected to a test making it possible to evaluate their inhibitory activity towards the enzyme ACAT-1 inspired by the following publication: “Identification of ACAT1- and ACAT2-specific inhibitors using a novel, cell based fluorescence assay: individual ACAT uniqueness” J. lipid. Res (2004) vol 45, pages 378-386. The principle of this test is based on the use of NBD-cholesterol, an analogue of cholesterol whose fluorescence depends on its environment. When it is in a polar environment, it is weakly fluorescent, whereas in a non-polar environment it is strongly fluorescent. […]
The following method is applied: the HepG2 cells are incubated in the presence of NBD-cholesterol (1 μg/ml) and of the compound of formula (I) to be tested in transparent-bottomed black 96-well plates at a level of 30000 cells per well. […] After addition of 50 μl of lysis buffer (10 mM NaPO4, 1% lgepal), the plates are shaken for 5 mins and read in fluorescence (excitation 490 nm, emission 540 nm) on a FUSION instrument (Perkin Elmer).

IC50 [nM]	Structure (SMILES)
24.1	CC(C)c1cccc(C(C)C)c1NC(=O)NCC1(Nc2ccccc2I)CCCC1 [I.2, 1-(2,6-diisopropylphenyl)-3-[1-(2-iodophenylamino)-cyclopentylmethyl)-urea]
9.5	CC(C)c1cccc(C(C)C)c1NC(=O)NCC1(Nc2ccccc2-c2ccccc2)CCCC1 [I.4, 1-[1-(biphenyl-2-ylamino)-cyclopentylmethyl]-3-(2,6-diisopropylphenyl)-urea]
